Test results taken from US10722484B2, “Methods of cancer treatment” (K-Gen, Inc., priority 2016, dated 2020).
Read-outs that look alike come from different tables or passages of the source.

Legend:
[1] = test system: A549 lung cancer cell line; assay: Combination viability/proliferation assays (384-well IC50 ratio, 96-well MacSynergy II); format: cell-based; conditions: for Ratio ([…] DMSO IC50/combination IC50) / Combination in A549: K101A (synergism/antagonism) / Combination in A549: K102 (synergism/antagonism): A549; for Combination in A549: K101A (synergism/antagonism): agent assayed in combination with K101A; for Combination in A549: K101A (synergism/antagonism) / Combination in A549: K102 (synergism/antagonism): * 2-3 concentrations, # full concentration ranges; for Combination in A549: K102 (synergism/antagonism): agent assayed in combination with K102
Description: A 96-well MacSynergy II format for combination test was also used. […] The analysis was done with the SQRT(Data) scale and the four parameter Hill curve was fitted using XLfit5.1 (the MacSynergy II Excel Spreadsheet) for the inhibition data. Synergy (positive number) or Antagonism (negative number) volumes were calculated. […] Three-dimensional MacSynergy II graphs were generated where positive values indicated synergism and negative values indicated antagonism.

[2] = test system: HL-60 human promyelocytic leukemia cells; assay: Combination viability/proliferation assays
Description: Briefly, cells at density of 1,000-10,000 cells/well in 96-well plates or 200-1600 cells/well in 384-well plates were seeded and incubated at 37° C. for 24 hours before addition of compounds. A series of 9 different concentrations of compound stocks (500×) were prepared by 3-fold serial dilutions in DMSO. […] After 96 hours of incubation, 35 μL or 50 μL of CellTiter Glo reagent (Promega) was added to each well and luminescence was measured after 10 minutes using EnVision (PerkinElmer). Luminescence from cells treated with DMSO alone was set as Max and % of inhibition was calculated as follows: Inhibition %=(Max-Sample value)/Max*100. Data were analyzed using XLfit software (ID Business Solutions Ltd.) or GraphPad software and IC50, relative IC50, and % of top inhibition were calculated.
The top concentration for the tested PKC activator compound was set at roughly the IC50 when the same testing compound was used as a single agent assayed in the same cell line. The next dose was either 3-fold or 10-fold dilution from the top concentration.

HL60 = assay: Proliferation assay (CellTiter Glo); format: cell-based, human; conditions: 96 hours
Description: (§1) The dose range for most compounds was 4.6 nM-30 μM. The dose ranges for some compounds were adjusted downward to 0.46 nM-3 μM or 0.08 nM-0.5 μM or 0.03 nM-0.2 μM. […] The results are shown in Tables 3-6 for pancreatic cancer, lung cancer, colon/gastric cancer, and leukemia.

THP1 = assay: Proliferation assay (CellTiter Glo); format: cell-based, human; conditions: 96 hours
Description: as §1

MiaPaCa-2 = assay: Proliferation assay (CellTiter Glo); format: cell-based; conditions: 96 hours
SW900 = assay: Proliferation assay (CellTiter Glo); format: cell-based; conditions: SW900 (K-RAS: G12V); 96 hours
Description: as §1
(§2) Other cancer cell lines having wild-type K-RAS status and K-RAS mutation at G12 were also screened using the PKC activator compounds. […] K104 was tested in a range of 0.03 nM-0.2 μM. […] The dose ranges were adjusted downward to 0.46 nM-3 μM for K102 and 0.08 nM-0.5 μM for K103 for some cell lines. The results of the screening of cancer cells lines with wild-type K-RAS status and K-RAS mutations at the G12 positions are presented in Table 7.

RPMI8226 = assay: Proliferation assay (CellTiter Glo); format: cell-based; conditions: RPM18226; 96 hours
Description: as §1, §2

H838 = assay: Proliferation assay (CellTiter Glo); format: cell-based; conditions: H838 (RAS WT); 96 hours
Description: as §1, §2

HT29 = assay: Proliferation assay (CellTiter Glo); format: cell-based; conditions: HT29 (RAS WT); 96 hours
Description: as §1, §2

BxPC-3 = assay: Proliferation assay (CellTiter Glo); format: cell-based; conditions: BxPC-3 (RAS WT); 96 hours
Description: as §1, §2

Colo205 = assay: Proliferation assay (CellTiter Glo); format: cell-based; conditions: Colo205 (RAS WT); 96 hours
Description: as §1, §2

H1915 = assay: Proliferation assay (CellTiter Glo); format: cell-based; conditions: H1915 (RAS WT); 96 hours
Description: as §1, §2

H358 = assay: Proliferation assay (CellTiter Glo); format: cell-based; conditions: HE58, 96 hours
Description: as §1

Capan-1 = assay: Proliferation assay (CellTiter Glo); format: cell-based; conditions: 96 hours
Description: as §1

AGS = assay: Proliferation assay (CellTiter Glo); format: cell-based; conditions: 96 hours
Description: as §1

KP-4 = assay: Proliferation assay (CellTiter Glo); format: cell-based; conditions: 96 hours
Description: as §1

SW620 = assay: Proliferation assay (CellTiter Glo); format: cell-based; conditions: 96 hours
Description: as §1

H727 = assay: Proliferation assay (CellTiter Glo); format: cell-based; conditions: 96 hours
Description: as §1

LS180 = assay: Proliferation assay (CellTiter Glo); format: cell-based; conditions: 96 hours
Description: as §1

HCT116 = assay: Proliferation assay (CellTiter Glo); format: cell-based; conditions: 96 hours
Description: as §1

H441 = assay: Proliferation assay (CellTiter Glo); format: cell-based; conditions: 96 hours
Description: as §1

A549 = assay: Proliferation assay (CellTiter Glo); format: cell-based; conditions: 96 hours
Description: as §1

AsPC-1 = assay: Proliferation assay (CellTiter Glo); format: cell-based; conditions: 96 hours
Description: as §1

Pan2.13 = assay: Proliferation assay (CellTiter Glo); format: cell-based; conditions: 96 hours
Description: as §1

CCRF-CEM = assay: Proliferation assay (CellTiter Glo); format: cell-based; conditions: 96 hours
Description: as §1

Pan2.03 = assay: Proliferation assay (CellTiter Glo); format: cell-based; conditions: 96 hours
Description: as §1

SMILES: Cc1sc2c(c1C)C(c1ccc(Cl)cc1)=NC(CC(=O)OC(C)(C)C)c1nnc(C)n1-2 (racemic) [(±)-JQ1, tert-butyl 2-(4-(4-chlorophenyl)-2,3,9-triMethyl-6H-thieno[3,2-f][1,2,4]triazolo[4,3-a][1,4]diazepin-6-yl)acetate]
- Ratio ([…] DMSO IC50/combination IC50) ([1]; in combination with 0.013 μM K102): 0.55
- Ratio ([…] DMSO IC50/combination IC50) ([1]; in combination with 0.04 μM K102): 0.57
- Ratio ([…] DMSO IC50/combination IC50) ([1]; in combination with 0.33 uM K101A): 0.27
- Ratio ([…] DMSO IC50/combination IC50) ([1]; in combination with 1 uM K101A): 0.09
- effect in combination with K101A or K102 in inhibiting the growth of A549 cells ([1]; K101A or K102): strong antagonist effect
- Combination in A549: K101A (synergism/antagonism) [1]: Antagonism
- Combination in A549: K102 (synergism/antagonism) [1]: Antagonism
- effect in combination with K101A and K102 [2]: moderate or minor synergistic/additive effect

SMILES: CC(=O)OC12CC(C)C3(O)C(C=C(CO)CC4(O)C(O)C(C)=CC43)C1C2(C)C (stereo not shown) [Compound K101C]
- EC50 (HL60; HL60 (N-RAS: Q61L), absolute EC50, read-out: Ab EC50): 17 µM
- Top Inhibition % (HL60; HL60, % of top inhibition): 63.9%
- EC50 (HL60; HL60, relative EC50, read-out: Re EC50): 13 µM
- EC50 (THP1; THP1 (N-RAS: G12D), absolute EC50, read-out: Ab EC50): 16 µM
- Top Inhibition % (THP1; THP1, % of top inhibition): 51.4%
- EC50 (THP1; THP1, relative EC50, read-out: Re EC50): 8.11 µM
- EC50 (MiaPaCa-2; MiaPaCa-2 (K-RAS: G12C), absolute EC50, read-out: Ab EC50): > 30 µM
- Top Inhibition % (MiaPaCa-2; MiaPaCa-2, % of top inhibition): 40.1%
- EC50 (MiaPaCa-2; MiaPaCa-2, relative EC50, read-out: Re EC50): 4.37 µM
- Top Inhibition % (SW900): 10.9%
- Top Inhibition % (RPMI8226): 22.72%
- Top Inhibition % (H838): 20.2%
- Top Inhibition % (HT29): 4.8%
- Top Inhibition % (BxPC-3): 36.67%
- Top Inhibition % (Colo205): 73.2%
- Top Inhibition % (H1915): 28.9%
- Top Inhibition % (H358; % of top inhibition): 44.0%
- EC50 (H358; absolute EC50, read-out: Ab EC50): > 30 µM
- EC50 (H358; relative EC50, read-out: Re EC50): 4.98 µM
- EC50 (Capan-1; Capan-1 (K-RAS: G12V), absolute EC50, read-out: Ab EC50): > 30 µM
- Top Inhibition % (Capan-1; Capan-1, % of top inhibition): 35.7%
- EC50 (Capan-1; Capan-1, relative EC50, read-out: Re EC50): 5.4 µM
- EC50 (AGS; AGS (gastric, K-RAS: G12D), absolute EC50, read-out: Ab EC50): > 30 µM
- Top Inhibition % (AGS; AGS, % of top inhibition): 25.3%
- EC50 (AGS; AGS, relative EC50, read-out: Re EC50): 11 µM
- EC50 (KP-4; KP-4 (K-RAS: G12C), absolute EC50, read-out: Ab EC50): 11 µM
- Top Inhibition % (KP-4; KP-4, % of top inhibition): 70.4%
- EC50 (KP-4; KP-4, relative EC50, read-out: Re EC50): 6.77 µM
- EC50 (SW620; SW620 (K-RAS: G12V), absolute EC50, read-out: Ab EC50): > 30 µM
- Top Inhibition % (SW620; SW620, % of top inhibition): 0.0%
- EC50 (H727; H727 (K-RAS: G12V), absolute EC50, read-out: Ab EC50): > 30 µM
- Top Inhibition % (H727; H727, % of top inhibition): 42.8%
- EC50 (H727; H727, relative EC50, read-out: Re EC50): 3.61 µM
- EC50 (LS180; LS180 (K-RAS: G12D), absolute EC50, read-out: Ab EC50): > 30 µM
- Top Inhibition % (LS180; LS180, % of top inhibition): 6.8%
- EC50 (HCT116; HCT116 (K-RAS: G13D), absolute EC50, read-out: Ab EC50): > 30 µM
- Top Inhibition % (HCT116; HCT116, % of top inhibition): 12.2%
- EC50 (H441; H441 (K-RAS: G12V), absolute EC50, read-out: Ab EC50): > 30 µM
- Top Inhibition % (H441; H441, % of top inhibition): 37.0%
- EC50 (H441; H441, relative EC50, read-out: Re EC50): 7.44 µM
- EC50 (A549; A549 (K-RAS: G12S), absolute EC50, read-out: Ab EC50): 13 µM
- Top Inhibition % (A549; A549, % of top inhibition): 70.3%
- EC50 (A549; A549, relative EC50, read-out: Re EC50): 6.68 µM

SMILES: CC(=O)OC12CC(C)C3(O)C(C=C(COC(=O)CC(N)C(=O)[O-])CC4(O)C(=O)C(C)=CC43)C1C2(C)C.[Na+] (stereo not shown) [Compound K101I]
- Top Inhibition % (SW900): 10.8%
- Top Inhibition % (RPMI8226): 17.60%
- Top Inhibition % (H838): 29.3%
- Top Inhibition % (HT29): 11.8%
- Top Inhibition % (BxPC-3): 38.12%
- Top Inhibition % (Colo205): 82.2%
- Top Inhibition % (H1915): 16.4%
- EC50 (AsPC-1; AsPC-1 (K-RAS: G12D), absolute EC50, read-out: Ab EC50): > 30 µM
- Top Inhibition % (AsPC-1; AsPC-1, % of top inhibition): 25.0%
- EC50 (AsPC-1; AsPC-1, relative EC50, read-out: Re EC50): 6.64 µM
- EC50 (Pan2.13; Pan2.13 (K-RAS: Q61H), absolute EC50, read-out: Ab EC50): > 30 µM
- Top Inhibition % (Pan2.13; Pan2.13, % of top inhibition): 48.3%
- EC50 (Pan2.13; Pan2.13, relative EC50, read-out: Re EC50): 0.16 µM
- EC50 (CCRF-CEM; CCRF-CEM (K-RAS: G12D), absolute EC50, read-out: Ab EC50): > 30 µM
- Top Inhibition % (CCRF-CEM; CCRF-CEM, % of top inhibition): 37.4%
- EC50 (CCRF-CEM; CCRF-CEM, relative EC50, read-out: Re EC50): 1.51 µM
- EC50 (Pan2.03; Pan2.03 (K-RAS: G12D), absolute EC50, read-out: Ab EC50): > 30 µM
- Top Inhibition % (Pan2.03; Pan2.03, % of top inhibition): 26.3%
- EC50 (Pan2.03; Pan2.03, relative EC50, read-out: Re EC50): 6.04 µM

SMILES: O=C(CCCCCCC(=O)Nc1ccccc1)NO [SAHA, suberoylanilide hydroxamic acid]
- Combination in A549: K101A (synergism/antagonism) [1]: Antagonism (minor)
- Combination in A549: K102 (synergism/antagonism) [1]: Antagonism (minor)
- effect in combination with K101A and K102 [2]: moderate or minor synergistic/additive effect
